Measurements: PMC5403251 (Neuropharmacology, 2016)

Experiments:
C57BL/6J mice = assay: Discrete-trials temporal discrimination task; assay type: in vivo, mouse
5-HT2A [1] = conditions: in mice; ref Canal et al., 2013; cited from earlier work
5-HT2A [2] = conditions: in humans; ref Almaula et al., 1996; Pigott et al., 2012; Canal et al., 2013; cited from earlier work
5-HT2A [3] = conditions: ref Kehne et al., 1996; cited from earlier work
[4] = DOI 0.3 mg/kg IP, 10 min before session
[5] = DOI 1 mg/kg IP, 10 min before session
[6] = DOI 3 mg/kg IP, 10 min before session, dose-response experiment
[7] = M100907 blockade experiment: vehicle pretreatment, DOI 3 mg/kg IP
[8] = SB-242,084 blockade experiment: vehicle pretreatment, DOI 3 mg/kg IP
[9] = M100907 0.03 mg/kg SC, 10 min before session
[10] = M100907 0.1 mg/kg SC, 10 min before session
[11] = M100907 0.3 mg/kg SC, 10 min before session

SMILES: COc1cc(CC(C)N)c(OC)cc1I.Cl (stereo not drawn) [DOI, 1-(2,5-dimethoxy-4-iodophenyl)-2-aminopropane hydrochloride]
- Difference limen (C57BL/6J mice; [4]): 1.20 ± 0.12 s
- Slope (ε) (C57BL/6J mice; [4]): 1.009±0.108
- T50 (C57BL/6J mice; [4]): 6.36 ± 0.17 s
- Trials completed (C57BL/6J mice; [4]): 188.3±2.7
- Weber fraction (C57BL/6J mice; DOI 0.3 mg/kg IP, 10 min before session, mean±SEM): 0.192±0.022
- Difference limen (C57BL/6J mice; [5]): 1.29 ± 0.14 s
- Slope (ε) (C57BL/6J mice; [5]): 0.968±0.133
- T50 (C57BL/6J mice; [5]): 6.43 ± 0.13 s
- Trials completed (C57BL/6J mice; [5]): 174.6±5.4
- Weber fraction (C57BL/6J mice; [5]): 0.200±0.021
- Difference limen (C57BL/6J mice; [6]): 1.89 ± 0.14 s
- Slope (ε) (C57BL/6J mice; [6]): 0.608±0.044
- T50 (C57BL/6J mice; [6]): 7.08 ± 0.41 s
- Weber fraction (C57BL/6J mice; [6]): 0.275±0.030
- %B responding (proportional choice of lever B) (C57BL/6J mice; DOI 3 mg/kg IP, 6.1, 7.8, 8.7 and 10.5 s after trial onset, dose-response experiment): significant reductions in %B responding
- %B responding (proportional choice of lever B) (C57BL/6J mice; DOI 3 mg/kg IP, 6.9, 7.8, 9.6 and 10.5 s trials, M100907 blockade experiment): reduced %B responding
- Difference limen (C57BL/6J mice; [7]): 1.71 ± 0.14 s
- Slope (ε) (C57BL/6J mice; [7]): 0.661±0.044
- T50 (C57BL/6J mice; [7]): 7.35 ± 0.20 s
- Trials completed (C57BL/6J mice; [7]): 148.3±8.8
- Weber fraction (C57BL/6J mice; [7]): 0.233±0.018
- Difference limen (C57BL/6J mice; [8]): 1.74 ± 0.16 s
- Slope (ε) (C57BL/6J mice; [8]): 0.713±0.101
- T50 (C57BL/6J mice; [8]): 6.89 ± 0.31 s
- Trials completed (C57BL/6J mice; [8]): 142.5±8.8
- Weber fraction (C57BL/6J mice; [8]): 0.255±0.026
- Correct responding during the 10.5 s-trials (C57BL/6J mice; after drug treatment that reduced %B responding at long stimulus intervals): more than 80%
- Selectivity for 5-HT2A vs. 5-HT2C receptors (5-HT2A [1]): 12 fold
- Selectivity for 5-HT2A (5-HT2A [2]): ~ 5 fold

SMILES: COc1cccc([C@H](O)C2CCN(CCc3ccc(F)cc3)CC2)c1OC [M100907, (R)-(+)-α-(2,3-dimethoxyphenyl)-1-[2-(4-fluorophenyl)ethyl]-4-piperidinemethanol]
- Effect of pretreatment on the T50 increase produced by DOI (C57BL/6J mice; M100907 0.03 mg/kg SC pretreatment, DOI 3 mg/kg IP): failed to completely block the T50 increase produced by DOI
- Effect of pretreatment on the response to DOI (%B responding) (C57BL/6J mice; M100907 0.03 mg/kg SC pretreatment, DOI 3 mg/kg IP, 6.9 and 10.5 s stimuli): blocked the effect of DOI on %B responding
- Difference limen (C57BL/6J mice; [9]): 1.31 ± 0.25 s
- Slope (ε) (C57BL/6J mice; [9]): 0.997±0.114
- T50 (C57BL/6J mice; [9]): 6.42 ± 0.23 s
- Trials completed (C57BL/6J mice; [9]): 163.6±6.5
- Weber fraction (C57BL/6J mice; M100907 0.03 mg/kg SC, 10 min before session, mean±SEM): 0.214±0.051
- Difference limen (C57BL/6J mice; [10]): 1.48 ± 0.15 s
- Slope (ε) (C57BL/6J mice; [10]): 0.791±0.070
- T50 (C57BL/6J mice; [10]): 6.80 ± 0.37 s
- Trials completed (C57BL/6J mice; [10]): 155.4±7.4
- Weber fraction (C57BL/6J mice; M100907 0.1 mg/kg SC, 10 min before session, mean±SEM): 0.220±0.021
- Difference limen (C57BL/6J mice; [11]): 1.60 ± 0.20 s
- Slope (ε) (C57BL/6J mice; [11]): 0.857±0.184
- T50 (C57BL/6J mice; M100907 0.3 mg/kg SC, 10 min before session, 0.3 mg/kg): 7.71 ± 0.45 s
- Weber fraction (C57BL/6J mice; M100907 0.3 mg/kg SC, 10 min before session, mean±SEM): 0.206±0.021
- Affinity for 5-HT2A (5-HT2A [3]): subnanomolar
- Fold lower affinity for 5-HT2C and α1 receptors than for 5-HT2A (5-HT2A [3]): at least 100 fold
- Selectivity for 5-HT2A vs. 5-HT2C receptors (5-HT2A [1]): 165 fold
